In EP4722212A1, “NOVEL COMPOUND FOR INHIBITING PROTEIN KINASES AND PHARMACEUTICAL COMPOSITION COMPRISING SAME” (Magicbullettherapeutics Co., Ltd., priority 2023, dated 2024):
Where two headings read alike, the source gives them in different places.

Columns and labels:
Assay in all cases: Kinase panel
Type in all cases: biochemical
PKCZETA = PKCZETA (Homo sapiens, UniProt Q05513); conditions: read-out: residual enzyme activity
In short: (§1)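 Compound at 1 µM was screened against a complete panel of purified kinases in biochemical format. Activity left after treatment was calculated and kinases inhibited by 60% or more were selected.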

MEKK3 = MEKK3 (Homo sapiens, UniProt Q99759); conditions: MEKK3, 1 µM; read-out: residual enzyme activity
MEKK3, sequence (Q99759 whole entry, species assumed): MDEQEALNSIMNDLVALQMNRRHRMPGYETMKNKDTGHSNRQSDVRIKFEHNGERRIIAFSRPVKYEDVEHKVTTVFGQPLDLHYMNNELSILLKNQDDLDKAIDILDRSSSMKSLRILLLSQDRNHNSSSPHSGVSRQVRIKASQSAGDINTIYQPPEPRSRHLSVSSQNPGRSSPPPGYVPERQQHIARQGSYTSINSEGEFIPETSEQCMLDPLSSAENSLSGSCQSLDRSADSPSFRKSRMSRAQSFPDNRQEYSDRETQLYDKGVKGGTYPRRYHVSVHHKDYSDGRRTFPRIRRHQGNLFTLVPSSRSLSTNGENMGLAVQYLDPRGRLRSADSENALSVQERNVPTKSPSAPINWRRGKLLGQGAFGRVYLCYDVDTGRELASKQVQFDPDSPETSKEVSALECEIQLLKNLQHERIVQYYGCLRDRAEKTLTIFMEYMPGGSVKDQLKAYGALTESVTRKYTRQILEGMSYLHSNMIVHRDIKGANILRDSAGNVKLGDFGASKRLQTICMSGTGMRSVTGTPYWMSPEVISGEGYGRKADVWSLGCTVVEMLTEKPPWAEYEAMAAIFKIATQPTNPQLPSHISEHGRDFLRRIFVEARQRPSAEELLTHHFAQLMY
In short: as §1

CK1A1 = CK1A1 (Homo sapiens, UniProt P48729); conditions: read-out: residual enzyme activity
In short: as §1

DMPK = DMPK (Homo sapiens, UniProt Q09013); conditions: read-out: residual enzyme activity
DMPK, sequence (Q09013 whole entry, species assumed): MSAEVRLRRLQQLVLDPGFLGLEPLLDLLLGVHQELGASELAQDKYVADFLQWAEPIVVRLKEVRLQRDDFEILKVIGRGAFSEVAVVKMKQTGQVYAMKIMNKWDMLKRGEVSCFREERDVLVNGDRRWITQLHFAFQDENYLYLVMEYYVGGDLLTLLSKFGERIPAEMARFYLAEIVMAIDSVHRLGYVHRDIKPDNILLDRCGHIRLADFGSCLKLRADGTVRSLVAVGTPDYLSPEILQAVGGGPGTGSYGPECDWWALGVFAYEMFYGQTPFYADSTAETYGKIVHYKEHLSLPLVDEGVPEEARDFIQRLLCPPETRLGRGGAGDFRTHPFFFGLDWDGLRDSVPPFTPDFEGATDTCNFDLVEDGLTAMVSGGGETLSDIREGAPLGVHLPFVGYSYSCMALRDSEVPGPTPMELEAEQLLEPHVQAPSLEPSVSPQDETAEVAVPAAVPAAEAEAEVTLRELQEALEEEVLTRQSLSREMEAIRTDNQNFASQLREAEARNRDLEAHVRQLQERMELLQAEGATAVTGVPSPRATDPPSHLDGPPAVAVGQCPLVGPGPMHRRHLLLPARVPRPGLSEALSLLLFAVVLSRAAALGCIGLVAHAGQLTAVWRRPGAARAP
In short: as §1

MSSK1/STK23 = MSSK1/STK23 (Homo sapiens, UniProt Q9UPE1); conditions: MSSK1/STK23, 1 µM; read-out: residual enzyme activity
In short: as §1

STK32C/YANK3 = STK32C/YANK3 (Homo sapiens, UniProt Q86UX6); conditions: STK32C/YANK3, 1 µM; read-out: residual enzyme activity
STK32C/YANK3, sequence (Q86UX6 whole entry): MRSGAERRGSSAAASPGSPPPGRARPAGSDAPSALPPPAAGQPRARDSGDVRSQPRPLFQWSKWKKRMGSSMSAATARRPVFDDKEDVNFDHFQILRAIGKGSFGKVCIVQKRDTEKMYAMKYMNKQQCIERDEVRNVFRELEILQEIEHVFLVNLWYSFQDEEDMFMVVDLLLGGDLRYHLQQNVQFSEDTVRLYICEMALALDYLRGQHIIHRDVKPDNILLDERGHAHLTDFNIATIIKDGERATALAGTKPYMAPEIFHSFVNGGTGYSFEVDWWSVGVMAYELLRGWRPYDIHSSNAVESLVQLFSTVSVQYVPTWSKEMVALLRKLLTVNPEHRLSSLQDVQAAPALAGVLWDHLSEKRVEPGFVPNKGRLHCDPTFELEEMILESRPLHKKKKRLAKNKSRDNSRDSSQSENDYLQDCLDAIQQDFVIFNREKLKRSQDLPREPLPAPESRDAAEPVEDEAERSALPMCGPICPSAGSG
In short: as §1

PAK1 = PAK1 (Homo sapiens, UniProt Q13153); conditions: PAK1, 1 µM; read-out: residual enzyme activity
PAK1, sequence (Q13153 whole entry): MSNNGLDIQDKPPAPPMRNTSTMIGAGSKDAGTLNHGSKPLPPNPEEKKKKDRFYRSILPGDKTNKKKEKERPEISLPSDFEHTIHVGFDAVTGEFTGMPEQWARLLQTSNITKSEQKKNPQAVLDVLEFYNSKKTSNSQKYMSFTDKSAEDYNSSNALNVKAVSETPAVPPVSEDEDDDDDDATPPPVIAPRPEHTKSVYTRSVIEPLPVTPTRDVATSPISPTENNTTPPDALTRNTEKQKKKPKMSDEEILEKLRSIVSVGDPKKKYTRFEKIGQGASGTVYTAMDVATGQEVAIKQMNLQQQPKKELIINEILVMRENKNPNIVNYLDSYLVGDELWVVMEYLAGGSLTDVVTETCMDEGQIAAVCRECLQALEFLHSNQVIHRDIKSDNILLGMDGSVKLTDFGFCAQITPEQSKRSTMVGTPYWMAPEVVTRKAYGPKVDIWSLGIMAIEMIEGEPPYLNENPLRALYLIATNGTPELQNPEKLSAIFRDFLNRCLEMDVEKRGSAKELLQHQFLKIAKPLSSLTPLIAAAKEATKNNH
In short: as §1

TYK1/LTK = TYK1/LTK (Homo sapiens, UniProt P29376); conditions: read-out: residual enzyme activity
In short: as §1

NEK9 = NEK9 (Homo sapiens, UniProt Q8TD19); conditions: NEK9, 1 µM; read-out: residual enzyme activity
In short: as §1

FAK/PTK2 = FAK/PTK2 (Homo sapiens, UniProt Q05397); conditions: FAK/PTK2, 1 µM; read-out: residual enzyme activity
In short: as §1

EPHA2 = EPHA2 (Homo sapiens, UniProt P29317); conditions: EPHA2, 1 µM; read-out: residual enzyme activity
In short: as §1

TTBK1 = TTBK1 (Homo sapiens, UniProt Q5TCY1); conditions: TTBK1, 1 µM; read-out: residual enzyme activity
In short: as §1

AURORA A = AURORA A (Homo sapiens, UniProt O14965); conditions: read-out: residual enzyme activity
In short: as §1

CDC7/DBF4 = CDC7/DBF4 (Homo sapiens, UniProt O00311); conditions: CDC7/DBF4, 1 µM; read-out: residual enzyme activity
In short: as §1

MSK2/RPS6KA4 = MSK2/RPS6KA4 (Homo sapiens, UniProt O75676); conditions: MSK2/RPS6KA4, 1 µM; read-out: residual enzyme activity
In short: as §1

PKCIOTA = PKCIOTA (Homo sapiens, UniProt P41743); conditions: read-out: residual enzyme activity
In short: as §1

HASPIN = HASPIN (Homo sapiens, UniProt Q8TF76); conditions: read-out: residual enzyme activity
In short: as §1

ERBB4/HER4 = ERBB4/HER4 (Homo sapiens, UniProt Q15303); conditions: ERBB4/HER4, 1 µM; read-out: residual enzyme activity
In short: as §1

EPHB4 = EPHB4 (Homo sapiens, UniProt P54760); conditions: EPHB4, 1 µM; read-out: residual enzyme activity
In short: as §1

PKCG = PKCG (Homo sapiens, UniProt P05129); conditions: read-out: residual enzyme activity
In short: as §1

PKD2/PRKD2 = PKD2/PRKD2 (Homo sapiens, UniProt Q9BZL6); conditions: PKD2/PRKD2, 1 µM; read-out: residual enzyme activity
In short: as §1

NEK6 = NEK6 (Homo sapiens, UniProt Q9HC98); conditions: NEK6, 1 µM; read-out: residual enzyme activity
NEK6, sequence (Q9HC98 whole entry, species assumed): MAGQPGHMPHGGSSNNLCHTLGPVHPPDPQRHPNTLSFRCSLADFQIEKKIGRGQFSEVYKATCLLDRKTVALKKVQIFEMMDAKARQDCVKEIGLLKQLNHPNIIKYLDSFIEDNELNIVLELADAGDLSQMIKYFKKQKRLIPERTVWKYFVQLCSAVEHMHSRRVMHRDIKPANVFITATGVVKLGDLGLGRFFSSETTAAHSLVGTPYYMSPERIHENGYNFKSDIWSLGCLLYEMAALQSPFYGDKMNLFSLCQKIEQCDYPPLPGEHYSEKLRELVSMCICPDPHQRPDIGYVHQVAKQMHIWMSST
In short: as §1

CDK9/CYCLIN K = CDK9/CYCLIN K (Homo sapiens, UniProt P50750); conditions: read-out: residual enzyme activity
In short: as §1

CK1G1 = CK1G1 (Homo sapiens, UniProt Q9HCP0); conditions: read-out: residual enzyme activity
CK1G1, sequence (Q9HCP0 whole entry): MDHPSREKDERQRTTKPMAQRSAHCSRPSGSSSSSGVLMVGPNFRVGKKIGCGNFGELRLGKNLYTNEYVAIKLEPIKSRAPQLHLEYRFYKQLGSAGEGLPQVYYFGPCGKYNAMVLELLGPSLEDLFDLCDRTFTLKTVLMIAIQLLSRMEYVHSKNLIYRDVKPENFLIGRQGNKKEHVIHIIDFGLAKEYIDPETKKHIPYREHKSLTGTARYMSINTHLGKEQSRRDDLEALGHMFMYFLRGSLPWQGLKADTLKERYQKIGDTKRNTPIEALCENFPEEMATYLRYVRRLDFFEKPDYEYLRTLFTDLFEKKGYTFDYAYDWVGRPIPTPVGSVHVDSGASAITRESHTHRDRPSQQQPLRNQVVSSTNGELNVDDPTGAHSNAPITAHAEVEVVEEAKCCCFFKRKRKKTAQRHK
In short: as §1

RSK1 = RSK1 (Homo sapiens, UniProt Q15418); conditions: RSK1, 1 µM; read-out: residual enzyme activity
RSK1, sequence (Q15418 whole entry, species assumed): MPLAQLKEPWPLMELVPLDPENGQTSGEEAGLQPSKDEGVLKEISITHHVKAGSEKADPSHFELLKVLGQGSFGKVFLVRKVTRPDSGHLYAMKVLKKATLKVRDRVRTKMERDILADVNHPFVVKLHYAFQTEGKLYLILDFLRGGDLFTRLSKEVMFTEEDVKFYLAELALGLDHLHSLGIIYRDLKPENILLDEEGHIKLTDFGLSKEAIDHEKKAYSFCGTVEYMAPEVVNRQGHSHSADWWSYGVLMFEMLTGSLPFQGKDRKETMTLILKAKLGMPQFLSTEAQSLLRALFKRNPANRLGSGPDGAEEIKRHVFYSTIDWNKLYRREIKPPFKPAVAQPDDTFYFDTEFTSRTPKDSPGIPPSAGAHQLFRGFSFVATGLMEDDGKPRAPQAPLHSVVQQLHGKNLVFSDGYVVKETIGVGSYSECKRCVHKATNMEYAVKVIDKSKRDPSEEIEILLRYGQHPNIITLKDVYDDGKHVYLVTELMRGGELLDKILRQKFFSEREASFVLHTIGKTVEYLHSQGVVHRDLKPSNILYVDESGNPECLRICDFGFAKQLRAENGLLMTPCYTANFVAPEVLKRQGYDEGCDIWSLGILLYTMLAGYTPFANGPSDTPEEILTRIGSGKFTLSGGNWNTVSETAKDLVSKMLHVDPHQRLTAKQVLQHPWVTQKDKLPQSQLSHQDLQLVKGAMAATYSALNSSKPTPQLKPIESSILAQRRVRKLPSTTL
In short: as §1

WNK3 = WNK3 (Homo sapiens, UniProt Q9BYP7); conditions: WNK3, 1 µM; read-out: residual enzyme activity
In short: as §1

MYLK4 = MYLK4 (Homo sapiens, UniProt Q86YV6); conditions: MYLK4, 1 µM; read-out: residual enzyme activity
In short: as §1

CDK4/CYCLIN D3 = CDK4/CYCLIN D3 (Homo sapiens, UniProt P11802); conditions: CDK4/cyclin D3, 1 µM; read-out: residual enzyme activity
In short: as §1

EPHA4 = EPHA4 (Homo sapiens, UniProt P54764); conditions: EPHA4, 1 µM; read-out: residual enzyme activity
In short: as §1

CLK2 = CLK2 (Homo sapiens, UniProt P49760); conditions: CLK2, 1 µM; read-out: residual enzyme activity
CLK2, sequence (P49760 whole entry, species assumed): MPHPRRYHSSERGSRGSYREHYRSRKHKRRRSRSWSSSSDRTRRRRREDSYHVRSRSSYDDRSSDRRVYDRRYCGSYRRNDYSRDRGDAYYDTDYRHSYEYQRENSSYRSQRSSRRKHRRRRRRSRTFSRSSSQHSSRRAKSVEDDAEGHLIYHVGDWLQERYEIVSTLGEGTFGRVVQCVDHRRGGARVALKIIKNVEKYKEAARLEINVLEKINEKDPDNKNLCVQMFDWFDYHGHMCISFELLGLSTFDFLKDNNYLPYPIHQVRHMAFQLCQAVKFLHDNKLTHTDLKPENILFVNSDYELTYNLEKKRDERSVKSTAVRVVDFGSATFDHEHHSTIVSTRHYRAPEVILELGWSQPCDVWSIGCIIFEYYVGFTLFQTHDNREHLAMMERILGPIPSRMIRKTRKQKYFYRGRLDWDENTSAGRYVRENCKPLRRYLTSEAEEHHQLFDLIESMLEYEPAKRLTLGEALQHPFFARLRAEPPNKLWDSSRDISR
In short: as §1

FER = FER (Homo sapiens, UniProt P16591); conditions: read-out: residual enzyme activity
In short: as §1

C-MET = C-MET (Homo sapiens, UniProt P08581); conditions: read-out: residual enzyme activity
In short: as §1

ERK5/MAPK7 = ERK5/MAPK7 (Homo sapiens, UniProt Q13164); conditions: ERK5/MAPK7, 1 µM; read-out: residual enzyme activity
In short: as §1

LYN = LYN (Homo sapiens, UniProt P07948); conditions: read-out: residual enzyme activity
LYN, sequence (P07948 whole entry, species assumed): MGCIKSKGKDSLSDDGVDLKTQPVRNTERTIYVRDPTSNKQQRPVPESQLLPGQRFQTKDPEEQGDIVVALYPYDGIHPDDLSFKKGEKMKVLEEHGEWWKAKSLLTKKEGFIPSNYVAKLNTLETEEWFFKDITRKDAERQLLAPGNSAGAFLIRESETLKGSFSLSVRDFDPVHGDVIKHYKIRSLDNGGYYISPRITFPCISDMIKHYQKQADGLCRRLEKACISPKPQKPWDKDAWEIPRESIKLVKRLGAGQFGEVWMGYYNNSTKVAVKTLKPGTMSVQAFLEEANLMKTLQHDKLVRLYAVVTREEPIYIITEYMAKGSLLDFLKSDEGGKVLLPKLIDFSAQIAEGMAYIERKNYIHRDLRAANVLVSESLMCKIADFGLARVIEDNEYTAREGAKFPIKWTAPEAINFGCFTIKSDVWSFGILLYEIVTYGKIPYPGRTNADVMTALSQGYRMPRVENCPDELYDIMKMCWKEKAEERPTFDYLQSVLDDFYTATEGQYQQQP
In short: as §1

| Structure (SMILES) | remaining activity at 1 µM (PKCZETA) | remaining activity at 1 µM (MEKK3) | remaining activity at 1 µM (DMPK) | remaining activity at 1 µM (MSSK1/STK23) | remaining activity at 1 µM (STK32C/YANK3) | remaining activity at 1 µM (PAK1) | remaining activity at 1 µM (TYK1/LTK) | remaining activity at 1 µM (NEK9) | remaining activity at 1 µM (FAK/PTK2) | remaining activity at 1 µM (EPHA2) | remaining activity at 1 µM (TTBK1) | remaining activity at 1 µM (AURORA A) | remaining activity at 1 µM (CDC7/DBF4) | remaining activity at 1 µM (MSK2/RPS6KA4) | remaining activity at 1 µM (PKCIOTA) | remaining activity at 1 µM (HASPIN) | remaining activity at 1 µM (ERBB4/HER4) | remaining activity at 1 µM (EPHB4) | remaining activity at 1 µM (PKCG) | remaining activity at 1 µM (PKD2/PRKD2) | also measured |
| --- | --- | --- | --- | --- | --- | --- | --- | --- | --- | --- | --- | --- | --- | --- | --- | --- | --- | --- | --- | --- | --- |
| Cc1cn(-c2cc(C(=O)Nc3ccc(C)c(N4Cc5cnc(NC6CC6)nc5C5(CC5)C4=O)c3)cc(C(F)(F)F)c2)cn1 [Compound 8, N-(3-(2'-(cyclopropylamino)-7'-oxo-5'H-spiro[cyclopropane-1,8'-pyrido[4,3-d]pyrimidine]-6'(7'H)-yl)-4-methylphenyl)-3-(4-methyl-1H-imidazol-1-yl)-5-(trifluoromethyl)benzamide] | > 40% | ≤ 40% | > 40% | > 40% | > 40% | > 40% | ≤ 40% | > 40% | ≤ 40% | ≤ 40% | > 40% | > 40% | > 40% | > 40% | > 40% | > 40% | ≤ 40% | ≤ 40% | > 40% | > 40% | remaining activity at 1 µM (CK1A1; CK1A1, 1 µM): > 40%; remaining activity at 1 µM (NEK6): > 40%; remaining activity at 1 µM (CDK9/CYCLIN K): > 40%; remaining activity at 1 µM (CK1G1; CK1G1, 1 µM): > 40%; remaining activity at 1 µM (RSK1): ≤ 40%; remaining activity at 1 µM (WNK3): > 40%; remaining activity at 1 µM (MYLK4): > 40%; remaining activity at 1 µM (CDK4/CYCLIN D3): > 40%; remaining activity at 1 µM (EPHA4): ≤ 40%; remaining activity at 1 µM (CLK2): > 40%; remaining activity at 1 µM (FER): ≤ 40%; remaining activity at 1 µM (C-MET; C-MET): > 40%; remaining activity at 1 µM (ERK5/MAPK7): > 40%; remaining activity at 1 µM (LYN): ≤ 40% |
| Cc1ccc(Nc2ncc3c(n2)C2(CC2)C(=O)N(c2cc(NC(=O)c4cccc(C(F)(F)F)c4)ccc2C)C3)cn1 [Compound 51, N-(4-methyl-3-(2'-((6-methylpyridin-3-yl)amino)-7'-oxo-5'H-spiro[cyclopropane-1,8'-pyrido[4,3-d]pyrimidine]-6'(7'H)-yl)phenyl)-3-(trifluoromethyl)benzamide] | > 40% | ≤ 40% | > 40% | > 40% | > 40% | > 40% | > 40% | > 40% | ≤ 40% | ≤ 40% | > 40% | > 40% | > 40% | > 40% | > 40% | > 40% | ≤ 40% | ≤ 40% | > 40% | > 40% | remaining activity at 1 µM (CK1A1; CKlal, 1 µM): > 40%; remaining activity at 1 µM (NEK6): > 40%; remaining activity at 1 µM (CDK9/CYCLIN K): > 40%; remaining activity at 1 µM (CK1G1; CK1g1, 1 µM): > 40%; remaining activity at 1 µM (RSK1): ≤ 40%; remaining activity at 1 µM (WNK3): > 40%; remaining activity at 1 µM (MYLK4): > 40%; remaining activity at 1 µM (CDK4/CYCLIN D3): > 40%; remaining activity at 1 µM (EPHA4): ≤ 40%; remaining activity at 1 µM (CLK2): > 40%; remaining activity at 1 µM (FER): ≤ 40%; remaining activity at 1 µM (C-MET; c-MET): > 40%; remaining activity at 1 µM (ERK5/MAPK7): > 40%; remaining activity at 1 µM (LYN): ≤ 40% |
